# Measurements: PubChem BioAssay AID1745844 (Carcinogenic Potency Database (CPDB), 2022)
# The source made the active and inactive calls. How the calls were made is not given here.
# Test system: rodent lifetime carcinogenesis bioassay, tumor incidence TD50
# Test: carcinogenic potency in animals, long-term in vivo studies, CPDB compilation (AID 1745844)
smiles,measurement,setting,value
CC(C)OC(=O)COc1ccc(Cl)cc1Cl,TD50,"mouse, strain B6AKF1, females, oral dosing, site: any site (literature study), lesion: several types, types named in the paper, dosed 76 weeks, study length 76 weeks",83.2 mg/kg/day (inactive)
same,TD50,"mouse, strain B6AKF1, females, oral dosing, site: liver, lesion: hepatocellular carcinoma, dosed 76 weeks, study length 76 weeks",94.7 mg/kg/day (inactive)
same,carcinogen call,"mouse, strain B6AKF1, females, oral dosing, site: lung, lesion: adenoma, dosed 76 weeks, study length 76 weeks",negative (inactive)
same,carcinogen call,"mouse, strain B6AKF1, males, oral dosing, site: any site (literature study), lesion: several types, types named in the paper, dosed 76 weeks, study length 76 weeks",negative (inactive)
same,carcinogen call,"mouse, strain B6AKF1, males, oral dosing, site: liver, lesion: hepatoma, dosed 76 weeks, study length 76 weeks",negative (inactive)
same,carcinogen call,"mouse, strain B6AKF1, males, oral dosing, site: lung, lesion: adenoma, dosed 76 weeks, study length 76 weeks",negative (inactive)
same,TD50,"mouse, strain B6C3F1, females, oral dosing, site: any site (literature study), lesion: several types, types named in the paper, dosed 76 weeks, study length 76 weeks",48.7 mg/kg/day (inactive)
same,TD50,"mouse, strain B6C3F1, females, oral dosing, site: liver, lesion: hepatoma, dosed 76 weeks, study length 76 weeks",100 mg/kg/day (inactive)
same,TD50,"mouse, strain B6C3F1, females, oral dosing, site: lung, lesion: adenoma, dosed 76 weeks, study length 76 weeks",100 mg/kg/day (inactive)
same,TD50,"mouse, strain B6C3F1, males, oral dosing, site: any site (literature study), lesion: several types, types named in the paper, dosed 76 weeks, study length 76 weeks",16.4 mg/kg/day (inactive)
same,TD50,"mouse, strain B6C3F1, males, oral dosing, site: liver, lesion: hepatoma, dosed 76 weeks, study length 76 weeks",93.6 mg/kg/day (inactive)
same,TD50,"mouse, strain B6C3F1, males, oral dosing, site: lung, lesion: adenoma, dosed 76 weeks, study length 76 weeks",21.3 mg/kg/day (inactive)
CC[C@H](C)C(=O)O[C@H]1C[C@@H](C)C=C2C=C[C@H](C)[C@H](CC[C@@H]3C[C@@H](O)CC(=O)O3)[C@H]21,TD50,"mouse, strain Charles River CD1, females, by gavage, site: forestomach, lesion: squamous-cell carcinoma, dosed 92 weeks, study length 92 weeks",38400 mg/kg/day
same,TD50,"mouse, strain Charles River CD1, females, by gavage, site: forestomach, lesion: squamous-cell papilloma, dosed 92 weeks, study length 92 weeks",1020 mg/kg/day
same,TD50,"mouse, strain Charles River CD1, females, by gavage, site: liver, lesion: hepatocellular carcinoma, dosed 92 weeks, study length 92 weeks",2240 mg/kg/day
same,TD50,"mouse, strain Charles River CD1, females, by gavage, site: liver, lesion: several types, types named in the paper, dosed 92 weeks, study length 92 weeks",623 mg/kg/day
same,TD50,"mouse, strain Charles River CD1, females, by gavage, site: lung, lesion: adenocarcinoma, dosed 92 weeks, study length 92 weeks",57400 mg/kg/day
same,TD50,"mouse, strain Charles River CD1, females, by gavage, site: lung, lesion: alveolar-cell adenoma, dosed 92 weeks, study length 92 weeks",1220 mg/kg/day
same,TD50,"mouse, strain Charles River CD1, males, by gavage, site: forestomach, lesion: squamous-cell papilloma, dosed 92 weeks, study length 92 weeks",8550 mg/kg/day
same,TD50,"mouse, strain Charles River CD1, males, by gavage, site: liver, lesion: hepatocellular carcinoma, dosed 92 weeks, study length 92 weeks",708 mg/kg/day
same,TD50,"mouse, strain Charles River CD1, males, by gavage, site: liver, lesion: several types, types named in the paper, dosed 92 weeks, study length 92 weeks",439 mg/kg/day
same,TD50,"rat, strain Charles River CD (Sprague-Dawley), females, by gavage, site: liver, lesion: hepatocellular adenoma, dosed 105 weeks, study length 105 weeks",19900 mg/kg/day (inactive)
same,carcinogen call,"rat, strain Charles River CD (Sprague-Dawley), males, by gavage, site: liver, lesion: hepatocellular adenoma, dosed 105 weeks, study length 105 weeks",negative (inactive)
same,TD50,"rat, strain Charles River CD (Sprague-Dawley), males, by gavage, site: liver, lesion: hepatocellular carcinoma, dosed 105 weeks, study length 105 weeks",2330 mg/kg/day (inactive)
COc1c(Cl)c(Cl)c(Cl)c(Cl)c1Cl,TD50,"mouse, strain B6C3F1, females, by gavage, site: any site (literature study), lesion: several types, types named in the paper, dosed 103 weeks, study length 104 weeks",47.5 mg/kg/day (inactive)
same,TD50,"mouse, strain B6C3F1, females, by gavage, site: liver, lesion: hepatocellular adenoma + hepatocellular carcinoma + neoplastic nodule, dosed 103 weeks, study length 104 weeks",63 mg/kg/day
same,TD50,"mouse, strain B6C3F1, females, by gavage, site: lung, lesion: alveolar/bronchiolar adenoma + alveolar/bronchiolar carcinoma, dosed 103 weeks, study length 104 weeks",776 mg/kg/day
same,TD50,"mouse, strain B6C3F1, males, by gavage, site: adrenal medulla + liver, lesion: pheochromocytoma, benign + hemangiosarcoma, dosed 103 weeks, study length 104 weeks",38.3 mg/kg/day
same,TD50,"mouse, strain B6C3F1, males, by gavage, site: adrenal medulla, lesion: pheochromocytoma, benign, dosed 103 weeks, study length 104 weeks",77.4 mg/kg/day
same,TD50,"mouse, strain B6C3F1, males, by gavage, site: any site (literature study), lesion: several types, types named in the paper, dosed 103 weeks, study length 104 weeks",40.2 mg/kg/day
same,TD50,"mouse, strain B6C3F1, males, by gavage, site: liver, lesion: hemangiosarcoma, dosed 103 weeks, study length 104 weeks",68 mg/kg/day
same,TD50,"rat, strain Fischer 344, females, by gavage, site: adrenal medulla, lesion: pheochromocytoma, benign, dosed 103 weeks, study length 104 weeks",174 mg/kg/day
same,TD50,"rat, strain Fischer 344, females, by gavage, site: liver, lesion: hepatocellular adenoma + hepatocellular carcinoma + neoplastic nodule, dosed 103 weeks, study length 104 weeks",1180 mg/kg/day
same,TD50,"rat, strain Fischer 344, males, by gavage, site: adrenal medulla, lesion: pheochromocytoma, benign, dosed 103 weeks, study length 104 weeks",24.8 mg/kg/day
same,TD50,"rat, strain Fischer 344, males, by gavage, site: adrenal medulla, lesion: pheochromocytoma, malignant + pheochromocytoma, benign, dosed 103 weeks, study length 104 weeks",30 mg/kg/day
same,TD50,"rat, strain Fischer 344, males, by gavage, site: liver, lesion: hepatocellular adenoma + hepatocellular carcinoma + neoplastic nodule, dosed 103 weeks, study length 104 weeks",6460 mg/kg/day
CC(=O)[O-].CC(=O)[O-].CCC(=O)c1ccc(F)c([C@@H]2C[C@@H]2NC(=O)Nc2ccc(C#N)cn2)c1O.[Zn+2],TD50,"hamster, strain Syrian Golden, females, in feed, site: any site (literature study), lesion: several types, types named in the paper, dosed 78 weeks, study length 78 weeks",177000 mg/kg/day (inactive)
same,carcinogen call,"hamster, strain Syrian Golden, females, in feed, site: liver, lesion: hemangioma, dosed 78 weeks, study length 78 weeks",negative (inactive)
same,TD50,"hamster, strain Syrian Golden, males, in feed, site: any site (literature study), lesion: several types, types named in the paper, dosed 106 weeks, study length 111 weeks",54100 mg/kg/day (inactive)
same,carcinogen call,"hamster, strain Syrian Golden, males, in feed, site: liver, lesion: hemangioma, dosed 106 weeks, study length 111 weeks",negative (inactive)
same,TD50,"rat, strain MRC, females, in feed, site: peripheral nervous system, lesion: one or several types, types not named, dosed 143 weeks, study length 146 weeks",35400 mg/kg/day (inactive)
same,carcinogen call,"rat, strain MRC, females, in feed, site: skin, lesion: one or several types, types not named, dosed 143 weeks, study length 146 weeks",negative (inactive)
same,carcinogen call,"rat, strain MRC, males, in feed, site: any site (literature study), lesion: several types, types named in the paper, dosed 139 weeks, study length 141 weeks",negative (inactive)
Cc1ccc(NC(N)=O)cc1,carcinogen call,"mouse, strain C57BL/6, females, in feed, site: liver, lesion: hepatocellular carcinoma, dosed 52 weeks, study length 69 weeks",negative (inactive)
same,carcinogen call,"mouse, strain C57BL/6, females, in feed, site: lung, lesion: alveolar/bronchiolar adenoma, dosed 52 weeks, study length 69 weeks",negative (inactive)
same,TD50,"mouse, strain C57BL/6, males, in feed, site: all sites, lesion: malignant lymphoma, histiocytic type, dosed 52 weeks, study length 69 weeks",265 mg/kg/day
same,TD50,"mouse, strain C57BL/6, males, in feed, site: all sites, lesion: malignant lymphoma, dosed 52 weeks, study length 69 weeks",206 mg/kg/day
same,TD50,"mouse, strain C57BL/6, males, in feed, site: liver, lesion: hepatocellular carcinoma, dosed 52 weeks, study length 69 weeks",722 mg/kg/day (inactive)
same,carcinogen call,"mouse, strain C57BL/6, males, in feed, site: lung, lesion: alveolar/bronchiolar adenoma, dosed 52 weeks, study length 69 weeks",negative (inactive)
same,TD50,"mouse, strain C57BL/6, males, in feed, site: mesenteric lymph node, lesion: malignant lymphoma, histiocytic type, dosed 52 weeks, study length 69 weeks",626 mg/kg/day
same,TD50,"mouse, strain C57BL/6, males, in feed, site: multiple organs, lesion: malignant lymphoma, histiocytic type, dosed 52 weeks, study length 69 weeks",441 mg/kg/day
same,carcinogen call,"rat, strain Fischer 344, females, in feed, site: liver, lesion: one or several types, types not named, dosed 52 weeks, study length 69 weeks",negative (inactive)
same,TD50,"rat, strain Fischer 344, males, in feed, site: liver, lesion: hepatocellular carcinoma, dosed 52 weeks, study length 69 weeks",699 mg/kg/day (inactive)
C/C=C/C=C/C(=O)O,TD50,"mouse, strain ASH-CS1, females, in feed, site: liver, lesion: hyperplastic nodule, dosed 80 weeks, study length 80 weeks",362000 mg/kg/day (inactive)
same,carcinogen call,"mouse, strain ASH-CS1, females, in feed, site: lung, lesion: adenoma, dosed 80 weeks, study length 80 weeks",negative (inactive)
same,carcinogen call,"mouse, strain ASH-CS1, males, in feed, site: liver, lesion: hyperplastic nodule, dosed 80 weeks, study length 80 weeks",negative (inactive)
same,carcinogen call,"mouse, strain ASH-CS1, males, in feed, site: lung, lesion: adenoma, dosed 80 weeks, study length 80 weeks",negative (inactive)
same,carcinogen call,"rat, strain Wistar, females, in feed, site: any site (literature study), lesion: malignant tumor, dosed 104 weeks, study length 104 weeks",negative (inactive)
same,carcinogen call,"rat, strain Wistar, females, in feed, site: any site (literature study), lesion: several types, types named in the paper, dosed 104 weeks, study length 104 weeks",negative (inactive)
same,TD50,"rat, strain Wistar, females, in feed, site: liver, lesion: hemangioma, dosed 104 weeks, study length 104 weeks",34000 mg/kg/day (inactive)
same,TD50,"rat, strain Wistar, males, in feed, site: any site (literature study), lesion: malignant tumor, dosed 104 weeks, study length 104 weeks",51400 mg/kg/day (inactive)
same,TD50,"rat, strain Wistar, males, in feed, site: any site (literature study), lesion: several types, types named in the paper, dosed 104 weeks, study length 104 weeks",33900 mg/kg/day (inactive)
same,carcinogen call,"rat, strain Wistar, males, in feed, site: liver, lesion: hemangioma, dosed 104 weeks, study length 104 weeks",negative (inactive)
